According to publication PMC11620503 (Antimicrobial Agents and Chemotherapy, 2024):
≈ marks a conversion by molar mass, not a printed value. Like-named read-outs stand apart in the source and are kept apart here.

Key:
[1] = tested on: MEM-nonsusceptible Enterobacterales; experiment: MIC, broth microdilution; assay type: cell-based; conditions: MEM-nonsusceptible Enterobacterales (127), cefiderocol 126 isolates
96 P. aeruginosa = experiment: MIC, broth microdilution; assay type: cell-based, Pseudomonas aeruginosa; conditions: Pseudomonas aeruginosa (96)
[2] = tested on: Carbapenemase-producing A. baumannii (4); experiment: MIC and MBC testing; assay type: cell-based, Acinetobacter baumannii; conditions: 4 carbapenemase-producing A. baumannii; fixed BLI concentration (μg/mL) in label; text: MBC/MIC ratios
[3] = tested on: MBL-producing isolates (Enterobacterales); experiment: MIC, broth microdilution; assay type: cell-based; conditions: Enterobacterales with metallo-carbapenemases (74), cefiderocol 73 isolates
[4] = tested on: MEM-, imipenem/relebactam-, and ceftolozane/tazobactam-nonsusceptible P. aeruginosa; experiment: MIC, broth microdilution; assay type: cell-based, Pseudomonas aeruginosa; conditions: for CLSI MIC interpretation I (intermediate) / CLSI MIC interpretation R (resistant) / CLSI MIC interpretation S (susceptible): CLSI breakpoints, marked c: breakpoints for β-lactam alone; for MIC50 / MIC90: Pseudomonas aeruginosa, fixed concentration (μg/mL) in label; for MIC50: read-out: MIC50; for MIC90: read-out: MIC90
[5] = tested on: 55 isolates of A. baumannii; experiment: MIC, broth microdilution; assay type: cell-based, Acinetobacter baumannii; conditions: Acinetobacter baumannii (55)
[6] = tested on: Metallo-carbapenemase-producing Enterobacterales (11); experiment: MIC and MBC testing; assay type: cell-based; conditions: 11 metallo-carbapenemase-producing Enterobacterales; fixed BLI concentration (μg/mL) in label
[7] = tested on: MEM-nonsusceptible Enterobacterales with metallo-carbapenemases; experiment: MIC, broth microdilution; assay type: cell-based; conditions: MEM-nonsusceptible Enterobacterales with metallo-carbapenemases (55), cefiderocol 54 isolates
[8] = tested on: serine-carbapenemase-producing isolates (Enterobacterales); experiment: MIC, broth microdilution; assay type: cell-based; conditions: Enterobacterales with serine-carbapenemases (80)
[9] = tested on: MEM-nonsusceptible Enterobacterales with serine-carbapenemases; experiment: MIC, broth microdilution; assay type: cell-based; conditions: MEM-nonsusceptible Enterobacterales with serine-carbapenemases (58)
[10] = tested on: 207 Enterobacterales including carbapenem-resistant isolates; experiment: MIC, broth microdilution; assay type: cell-based
[11] = tested on: Serine-carbapenemase-producing Enterobacterales (6); experiment: MIC and MBC testing; assay type: cell-based; conditions: 6 serine-carbapenemase-producing Enterobacterales; fixed BLI concentration (μg/mL) in label
[12] = CLSI breakpoints, marked c: breakpoints for β-lactam alone, tigecycline: FDA breakpoints
[13] = fixed concentration (μg/mL) in label, read-out: MIC50
[14] = fixed concentration (μg/mL) in label, read-out: MIC90
[15] = CLSI breakpoints, marked c: breakpoints for β-lactam alone
[16] = Ceftolozane/tazobactam-nonsusceptible Pseudomonas aeruginosa (45)
[17] = Imipenem/relebactam-nonsusceptible Pseudomonas aeruginosa (43)
[18] = MEM-nonsusceptible Pseudomonas aeruginosa (76)
[19] = All Enterobacterales (207), cefiderocol 205 isolates, CLSI breakpoints, marked c: breakpoints for β-lactam alone, tigecycline: FDA breakpoints

CC(C)(O/N=C(\C(=O)N[C@@H]1C(=O)N2C(C(=O)[O-])=C(C[n+]3ccccc3)CS[C@H]12)c1csc(N)n1)C(=O)O [CAZ, ceftazidime]
CLSI MIC interpretation I (intermediate) [1, 12]: 3.1% | CLSI MIC interpretation R (resistant) [1, 12]: 87.4% | CLSI MIC interpretation S (susceptible) [1, 12]: 9.4% | MIC50 [1, 13]: > 32 µg/mL | MIC90 [1, 14]: > 32 µg/mL | CLSI MIC interpretation I (intermediate) (96 P. aeruginosa; [15]): 6.3% | CLSI MIC interpretation R (resistant) (96 P. aeruginosa; [15]): 56.3% | CLSI MIC interpretation S (susceptible) (96 P. aeruginosa; [15]): 37.5% | MIC50 (96 P. aeruginosa; [13]): 32 µg/mL (≈ 58.5 µM) | MIC90 (96 P. aeruginosa; [14]): > 32 µg/mL | MBC/MIC ratio range [2]: 1–2 | CLSI MIC interpretation I (intermediate) [3, 12]: 0% | CLSI MIC interpretation R (resistant) [3, 12]: 98.6% | CLSI MIC interpretation S (susceptible) [3, 12]: 1.4% | MIC50 [3, 13]: > 32 µg/mL | MIC90 [3, 14]: > 32 µg/mL | CLSI MIC interpretation I (intermediate) [4, 16]: 4.4% | CLSI MIC interpretation R (resistant) [4, 16]: 93.3% | CLSI MIC interpretation S (susceptible) [4, 16]: 2.2% | CLSI MIC interpretation I (intermediate) [4, 17]: 7% | CLSI MIC interpretation R (resistant) [4, 17]: 83.7% | CLSI MIC interpretation S (susceptible) [4, 17]: 9.3% | CLSI MIC interpretation I (intermediate) [4, 18]: 6.6% | CLSI MIC interpretation R (resistant) [4, 18]: 68.4% | CLSI MIC interpretation S (susceptible) [4, 18]: 25% | MIC50 [4, 16]: > 32 µg/mL | MIC90 [4, 16]: > 32 µg/mL | MIC50 [4, 17]: > 32 µg/mL | MIC90 [4, 17]: > 32 µg/mL | MIC50 [4, 18]: 32 µg/mL (≈ 58.5 µM) | MIC90 [4, 18]: > 32 µg/mL | CLSI MIC interpretation I (intermediate) [5, 15]: 1.8% | CLSI MIC interpretation R (resistant) [5, 15]: 94.5% | CLSI MIC interpretation S (susceptible) [5, 15]: 3.6% | MIC50 [5, 13]: > 32 µg/mL | MIC90 [5, 14]: > 32 µg/mL | MIC/MBC range [6]: ≥1 | CLSI MIC interpretation I (intermediate) [7, 12]: 0% | CLSI MIC interpretation R (resistant) [7, 12]: 98.2% | CLSI MIC interpretation S (susceptible) [7, 12]: 1.8% | MIC50 [7, 13]: > 32 µg/mL | MIC90 [7, 14]: > 32 µg/mL | CLSI MIC interpretation I (intermediate) [8, 12]: 2.5% | CLSI MIC interpretation R (resistant) [8, 12]: 73.8% | CLSI MIC interpretation S (susceptible) [8, 12]: 23.8% | MIC50 [8, 13]: > 32 µg/mL | MIC90 [8, 14]: > 32 µg/mL | CLSI MIC interpretation I (intermediate) [9, 12]: 1.7% | CLSI MIC interpretation R (resistant) [9, 12]: 82.8% | CLSI MIC interpretation S (susceptible) [9, 12]: 15.5% | MIC50 [9, 13]: > 32 µg/mL | MIC90 [9, 14]: > 32 µg/mL | CLSI MIC interpretation I (intermediate) [10, 19]: 2.4% | CLSI MIC interpretation R (resistant) [10, 19]: 82.1% | CLSI MIC interpretation S (susceptible) [10, 19]: 15.5% | MIC50 ([10]; read-out: MIC50): > 32 µg/mL | MIC90 ([10]; read-out: MIC90): > 32 µg/mL | MIC/MBC range [11]: 1–256
